According to ChEMBL document CHEMBL6096701 (J Med Chem, 2025):
pEC50: −log10 of the molar value. Activity calls are given as the source filed them. The rule behind the calls is not given here.

How the values were obtained:
[1] = Upregulation of IL-10 level in human CD4+ T cell by flow cytometry analysis; type: functional, cell-based
[2] = target: Cyclin-dependent kinase 8/19 (Homo sapiens, UniProt P49336+Q9BWU1); test: Binding affinity to CDK8/CDK19 complex in human CD4+ T cell assessed as upregulation of IL-10 level; type: cell-based
Mus musculus [3] = test: Anti-inflammatory activity in LPS-induced male CD-1 mouse acute inflammatory model assessed as effect on IL-10 level at 50 mg/kg, sc preincubated for 15 mins followed by LPS stimulation and measured after 3.5 hrs; type: functional, organism-based; conditions: time 225.0 min
[4] = Upregulation of TNF-alpha level in human CD4+ T cell by flow cytometry analysis; type: functional, cell-based
Mus musculus [5] = test: Anti-inflammatory activity in LPS-induced male CD-1 mouse acute inflammatory model assessed as peak IL-10 level at 50 mg/kg, sc preincubated for 15 mins followed by LPS stimulation and measured after 2 hrs relative to control; type: functional; conditions: time 135 min, 2.25 h
[6] = Upregulation of IL-10 level in mouse whole blood cell preincubated for 30 mins followed by LPS stimulation and measured after 23 hrs by MSD analysis; type: functional, cell-based
[7] = Upregulation of IL-10 level in human whole blood cell preincubated for 30 mins followed by LPS stimulation and measured after 23 hrs by MSD analysis; type: functional, cell-based
Mus musculus [8] = test: Anti-inflammatory activity in LPS-induced male CD-1 mouse acute inflammatory model assessed as peak IL-10 level at 1 mg/kg, sc preincubated for 15 mins followed by LPS stimulation and measured after 2 hrs relative to control; type: functional; conditions: time 135 min, 2.25 h
Mus musculus [9] = test: Anti-inflammatory activity in LPS-induced male CD-1 mouse acute inflammatory model assessed as peak IL-10 level at 10 mg/kg, sc preincubated for 15 mins followed by LPS stimulation and measured after 2 hrs relative to control; type: functional; conditions: time 135 min, 2.25 h
[10] = target: Cyclin-dependent kinase 9 (Homo sapiens) (UniProt P50750); test: Binding affinity to CDK9 (unknown origin)
Cyclin-dependent kinase 9 (Homo sapiens), sequence (P50750 whole entry): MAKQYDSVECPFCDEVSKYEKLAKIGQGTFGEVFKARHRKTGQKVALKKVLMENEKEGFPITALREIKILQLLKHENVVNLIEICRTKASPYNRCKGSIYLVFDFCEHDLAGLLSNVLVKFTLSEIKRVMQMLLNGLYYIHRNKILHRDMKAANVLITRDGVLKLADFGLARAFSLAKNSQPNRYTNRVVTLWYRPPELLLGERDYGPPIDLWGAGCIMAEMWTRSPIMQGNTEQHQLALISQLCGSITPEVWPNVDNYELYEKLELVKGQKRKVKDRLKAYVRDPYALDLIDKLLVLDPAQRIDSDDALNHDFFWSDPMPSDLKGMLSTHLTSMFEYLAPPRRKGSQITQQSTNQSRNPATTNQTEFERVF

[11] = target: Cyclin-dependent kinase 7 (Homo sapiens) (UniProt P50613); test: Binding affinity to CDK7 (unknown origin)
Cyclin-dependent kinase 7 (Homo sapiens), sequence (P50613 whole entry): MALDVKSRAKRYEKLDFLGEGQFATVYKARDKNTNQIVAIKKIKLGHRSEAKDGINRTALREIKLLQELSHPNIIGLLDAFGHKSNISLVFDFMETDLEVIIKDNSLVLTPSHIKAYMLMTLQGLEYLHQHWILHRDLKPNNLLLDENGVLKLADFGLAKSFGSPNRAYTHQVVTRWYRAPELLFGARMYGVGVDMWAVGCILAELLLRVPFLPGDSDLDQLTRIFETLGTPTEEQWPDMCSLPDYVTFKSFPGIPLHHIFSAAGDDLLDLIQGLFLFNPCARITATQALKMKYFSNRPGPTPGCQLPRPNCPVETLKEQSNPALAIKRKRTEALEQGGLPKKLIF

[12] = target: Glycogen synthase kinase-3 alpha (Homo sapiens) (UniProt P49840); test: Binding affinity to GSK3alpha (unknown origin)
Glycogen synthase kinase-3 alpha (Homo sapiens), sequence (P49840 2-483 limits assumed): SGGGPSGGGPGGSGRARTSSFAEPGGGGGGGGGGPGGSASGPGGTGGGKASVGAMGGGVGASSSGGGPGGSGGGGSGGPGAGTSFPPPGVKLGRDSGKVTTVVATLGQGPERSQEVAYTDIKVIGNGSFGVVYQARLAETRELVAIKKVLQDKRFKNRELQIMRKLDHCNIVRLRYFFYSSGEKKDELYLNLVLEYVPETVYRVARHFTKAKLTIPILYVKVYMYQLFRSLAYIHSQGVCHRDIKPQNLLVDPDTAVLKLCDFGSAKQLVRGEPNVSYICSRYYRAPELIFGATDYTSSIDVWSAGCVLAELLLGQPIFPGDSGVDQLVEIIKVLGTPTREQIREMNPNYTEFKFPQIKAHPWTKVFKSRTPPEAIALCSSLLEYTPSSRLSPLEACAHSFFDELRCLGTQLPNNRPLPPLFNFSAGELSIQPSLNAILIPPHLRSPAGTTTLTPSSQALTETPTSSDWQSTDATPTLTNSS

[13] = target: Cyclin-dependent kinase 10 (Homo sapiens) (UniProt Q15131); test: Binding affinity to CDK10 (unknown origin)
Cyclin-dependent kinase 10 (Homo sapiens), sequence (Q15131 whole entry): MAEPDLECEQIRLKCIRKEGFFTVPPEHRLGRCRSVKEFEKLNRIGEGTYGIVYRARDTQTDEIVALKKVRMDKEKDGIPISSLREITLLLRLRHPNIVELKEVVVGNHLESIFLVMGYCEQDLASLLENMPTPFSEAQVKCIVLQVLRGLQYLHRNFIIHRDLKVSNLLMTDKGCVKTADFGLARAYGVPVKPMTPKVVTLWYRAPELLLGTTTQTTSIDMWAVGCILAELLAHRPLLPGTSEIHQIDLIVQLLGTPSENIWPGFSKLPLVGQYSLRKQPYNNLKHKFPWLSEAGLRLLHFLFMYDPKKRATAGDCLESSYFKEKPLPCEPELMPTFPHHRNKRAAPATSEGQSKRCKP

[14] = target: Cyclin-dependent kinase 5 (Homo sapiens) (UniProt Q00535); test: Binding affinity to CDK5 (unknown origin)
Cyclin-dependent kinase 5 (Homo sapiens), sequence (Q00535 whole entry, looked up): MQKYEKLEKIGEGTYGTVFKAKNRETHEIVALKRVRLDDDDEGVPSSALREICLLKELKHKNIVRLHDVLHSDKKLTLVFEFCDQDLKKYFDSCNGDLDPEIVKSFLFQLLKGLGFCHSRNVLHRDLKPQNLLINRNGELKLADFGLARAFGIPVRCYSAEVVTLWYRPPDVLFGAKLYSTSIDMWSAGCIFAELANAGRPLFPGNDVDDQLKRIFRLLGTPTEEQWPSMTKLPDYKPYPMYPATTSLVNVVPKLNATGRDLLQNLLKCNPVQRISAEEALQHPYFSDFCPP

[15] = target: Serine/threonine-protein kinase SIK2 (Homo sapiens) (UniProt Q9H0K1); test: Binding affinity to SIK2 (unknown origin) by FRET biochemical assay
Serine/threonine-protein kinase SIK2 (Homo sapiens), sequence (Q9H0K1 whole entry, looked up): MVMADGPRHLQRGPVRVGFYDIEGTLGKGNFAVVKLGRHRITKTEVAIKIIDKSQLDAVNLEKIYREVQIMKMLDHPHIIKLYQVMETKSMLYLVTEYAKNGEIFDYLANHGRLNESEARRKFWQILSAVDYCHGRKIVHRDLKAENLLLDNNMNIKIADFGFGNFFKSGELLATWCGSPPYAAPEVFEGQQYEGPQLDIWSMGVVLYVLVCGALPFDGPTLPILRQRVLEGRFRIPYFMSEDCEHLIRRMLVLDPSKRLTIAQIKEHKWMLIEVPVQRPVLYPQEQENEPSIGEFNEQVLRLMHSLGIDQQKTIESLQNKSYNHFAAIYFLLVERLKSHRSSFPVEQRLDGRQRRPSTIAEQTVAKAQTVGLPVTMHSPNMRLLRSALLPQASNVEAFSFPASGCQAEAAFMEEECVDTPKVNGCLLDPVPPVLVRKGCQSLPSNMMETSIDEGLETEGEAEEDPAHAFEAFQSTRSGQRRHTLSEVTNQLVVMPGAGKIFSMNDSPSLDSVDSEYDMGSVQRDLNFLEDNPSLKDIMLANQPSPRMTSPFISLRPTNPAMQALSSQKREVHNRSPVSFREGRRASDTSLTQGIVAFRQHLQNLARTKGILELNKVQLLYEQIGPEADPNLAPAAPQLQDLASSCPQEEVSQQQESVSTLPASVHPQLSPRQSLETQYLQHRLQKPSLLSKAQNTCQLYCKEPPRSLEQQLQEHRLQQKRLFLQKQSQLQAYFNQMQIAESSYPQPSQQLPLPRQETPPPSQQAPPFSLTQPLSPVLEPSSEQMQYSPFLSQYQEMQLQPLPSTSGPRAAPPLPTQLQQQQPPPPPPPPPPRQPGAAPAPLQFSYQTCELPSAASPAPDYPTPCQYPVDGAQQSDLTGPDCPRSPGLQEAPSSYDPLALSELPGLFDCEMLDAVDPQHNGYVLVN

[16] = target: Cyclin-dependent kinase 2 (Homo sapiens) (UniProt P24941); test: Binding affinity to CDK2 (unknown origin)
[17] = target: Serine/threonine-protein kinase SIK1 (Homo sapiens) (UniProt P57059); test: Binding affinity to SIK1 (unknown origin) by FRET biochemical assay
Serine/threonine-protein kinase SIK1 (Homo sapiens), sequence (P57059 whole entry): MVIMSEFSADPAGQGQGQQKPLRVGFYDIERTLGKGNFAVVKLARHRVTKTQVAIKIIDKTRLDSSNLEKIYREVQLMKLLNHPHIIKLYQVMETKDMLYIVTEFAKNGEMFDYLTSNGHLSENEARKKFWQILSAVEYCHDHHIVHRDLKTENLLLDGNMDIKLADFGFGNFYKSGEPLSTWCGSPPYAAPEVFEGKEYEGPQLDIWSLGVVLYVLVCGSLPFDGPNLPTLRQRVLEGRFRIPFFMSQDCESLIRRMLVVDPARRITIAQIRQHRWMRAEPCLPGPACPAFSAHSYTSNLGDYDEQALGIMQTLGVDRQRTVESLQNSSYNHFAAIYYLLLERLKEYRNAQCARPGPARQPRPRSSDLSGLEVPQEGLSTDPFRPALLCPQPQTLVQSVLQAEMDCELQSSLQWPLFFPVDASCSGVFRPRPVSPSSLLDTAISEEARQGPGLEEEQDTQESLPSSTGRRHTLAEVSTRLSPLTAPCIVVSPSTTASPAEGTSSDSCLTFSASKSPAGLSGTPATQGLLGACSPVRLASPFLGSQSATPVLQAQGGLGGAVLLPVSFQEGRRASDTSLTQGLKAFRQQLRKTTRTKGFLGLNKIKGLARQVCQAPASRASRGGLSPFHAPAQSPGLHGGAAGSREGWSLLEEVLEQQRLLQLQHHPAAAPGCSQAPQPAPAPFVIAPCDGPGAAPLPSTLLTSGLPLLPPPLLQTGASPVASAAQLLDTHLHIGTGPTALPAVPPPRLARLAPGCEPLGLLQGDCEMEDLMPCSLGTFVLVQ

[18] = target: Glycogen synthase kinase-3 beta (Homo sapiens) (UniProt P49841); test: Binding affinity to GSK3beta (unknown origin)
Glycogen synthase kinase-3 beta (Homo sapiens), sequence (P49841 whole entry, looked up): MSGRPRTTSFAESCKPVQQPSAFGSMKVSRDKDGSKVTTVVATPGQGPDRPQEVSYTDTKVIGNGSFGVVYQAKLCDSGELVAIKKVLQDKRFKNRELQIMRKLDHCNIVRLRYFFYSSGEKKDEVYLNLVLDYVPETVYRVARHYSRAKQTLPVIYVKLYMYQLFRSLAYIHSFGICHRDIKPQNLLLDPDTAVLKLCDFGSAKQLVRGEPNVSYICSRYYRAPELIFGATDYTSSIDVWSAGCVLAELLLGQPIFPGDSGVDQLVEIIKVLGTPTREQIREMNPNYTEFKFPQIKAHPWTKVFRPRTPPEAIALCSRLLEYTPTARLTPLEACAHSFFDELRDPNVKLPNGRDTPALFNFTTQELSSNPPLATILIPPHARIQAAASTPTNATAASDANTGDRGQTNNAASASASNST

[19] = target: Serine/threonine-protein kinase SIK3 (Homo sapiens) (UniProt Q9Y2K2); test: Binding affinity to SIK3 (unknown origin) by FRET biochemical assay
[20] = target: Cyclin-dependent kinase 6 (Homo sapiens) (UniProt Q00534); test: Binding affinity to CDK6 (unknown origin)
Cyclin-dependent kinase 6 (Homo sapiens), sequence (Q00534 whole entry): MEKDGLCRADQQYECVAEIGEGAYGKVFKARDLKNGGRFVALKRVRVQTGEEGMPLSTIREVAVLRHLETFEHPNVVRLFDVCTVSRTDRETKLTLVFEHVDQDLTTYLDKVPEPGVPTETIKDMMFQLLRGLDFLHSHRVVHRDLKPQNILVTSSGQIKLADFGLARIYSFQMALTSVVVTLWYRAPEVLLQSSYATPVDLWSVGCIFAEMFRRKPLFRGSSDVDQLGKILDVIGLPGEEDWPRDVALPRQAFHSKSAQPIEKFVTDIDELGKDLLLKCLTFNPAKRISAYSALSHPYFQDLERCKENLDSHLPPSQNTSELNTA

[21] = Metabolic stability in human hepatocytes assessed as intrinsic clearance by LC-MS/MS analysis; type: ADME, cell-based, Hepatocyte; conditions: read-out: CLH

Row | SMILES | pEC50 [1] | other results
1 | N#Cc1cc(C(=O)N2CCC[C@H](c3ccnc(N4CC[C@H](F)C4)n3)C2)c[nH]1 | 6.02 | –
2 | CCN(CC)c1nccc(C2CCCN(C(=O)c3c[nH]c(C#N)c3)C2)n1 (racemic) | < 4.60 | –
3 | N#Cc1cc(C(=O)N2CCCC(F)(c3ccnc(N4CCCC4)n3)C2)c[nH]1 (racemic) | 6.17 | –
4 | N#Cc1cc(C(=O)N2CCCC(c3ncnc(N4CCCC4)n3)C2)c[nH]1 (racemic) | < 4.60 | –
5 | N#Cc1cc(C(=O)N2CCOC(c3ccnc(N4CCCC4)n3)C2)n[nH]1 (racemic) | < 4.60 | –
6 | Cc1cc(C2CCCN(C(=O)c3c[nH]c(C#N)c3)C2)nc(N2CCCC2)n1 (racemic) | < 4.60 | –
7 | N#Cc1coc(C(=O)N2CCOC(c3ccnc(N4CCCC4)n3)C2)c1 (racemic) | < 4.60 | –
8 | Cn1cc(C(=O)N2CCOC(c3ccnc(N4CCCC4)n3)C2)cc1C#N (racemic) | < 4.60 | –
9 | CCc1nccc(C2CCCN(C(=O)c3c[nH]c(C#N)c3)C2)n1 (racemic) | < 4.60 | –
10 | Cc1[nH]c(C#N)cc1C(=O)N1CCOC(c2ccnc(N3CCCC3)n2)C1 (racemic) | 6.31 | –
11 | N#Cc1c[nH]c(C(=O)N2CCO[C@H](c3ccnc(N4CCCC4)n3)C2)c1 | 5.23 | Activity [10]: inactive; Activity [11]: inactive; Activity [12]: inactive; Activity [13]: inactive; Activity [14]: inactive; Activity [15]: inactive; Activity [16]: inactive; Activity [17]: inactive; Activity [18]: inactive; Activity [19]: inactive; Activity [20]: inactive
12 | N#Cc1cc(C(=O)N2CCCC(c3ccnc(-n4cccn4)n3)C2)c[nH]1 (racemic) | 5.04 | –
13 | CO[C@H]1C[C@@H](c2ccnc(N3CC[C@@H](F)C3)n2)CN(C(=O)c2c[nH]c(C#N)c2)C1 | 5.62 | –
14 | N#Cc1cc(C(=O)N2CCC[C@H](c3ccnc(N4CCC(F)(F)C4)n3)C2)c[nH]1 | 6.02 | –
15 | N#Cc1ccc(C(=O)N2CCOC(c3ccnc(N4CCCC4)n3)C2)[nH]1 (racemic) | < 4.60 | –
16 | CC(C)COc1nccc(C2CCCN(C(=O)c3c[nH]c(C#N)c3)C2)n1 (racemic) | < 4.60 | –
17 | NC(=O)c1c[nH]c(C(=O)N2CCOC(c3ccnc(N4CCCC4)n3)C2)c1 (racemic) | < 4.60 | –
18 | N#Cc1cc(C(=O)N2CCCC(c3ccnc(N4CCCCC4)n3)C2)c[nH]1 (racemic) | 5.70 | –
19 | N#Cc1ncc(C(=O)N2CCOC(c3ccnc(N4CCCC4)n3)C2)s1 (racemic) | < 4.60 | –
20 | N#Cc1cc(C(=O)N2CCO[C@H](c3ccnc(N4CCCC4)n3)C2)c[nH]1 | 5.98 | –
21 | N#Cc1cc(C(=O)N2CCOC(c3ccnc(N4CCCC4)n3)C2)co1 (racemic) | < 4.60 | –
22 | N#Cc1cc(C(=O)N2CCCC(c3cc(N4CCCC4)ncn3)C2)c[nH]1 (racemic) | < 4.60 | –

Compounds with a higher pEC50 [1], results first:

Row | pEC50 [1] | SMILES | other results
23 | 6.36 | C[C@@H]1CCN(C(=O)c2c[nH]c(C#N)c2)C[C@H]1c1ccnc(N2CCCC2)n1 | –
24 | 6.45 | Cc1[nH]c(C#N)cc1C(=O)N1CCCC(c2ccnc(N3CCCC3)n2)C1 (racemic) | –
25 | 6.47 | C[C@H]1CCCN1c1nccc([C@H]2CCCN(C(=O)c3c[nH]c(C#N)c3)C2)n1 | –
26 | 6.56 | N#Cc1cc(C(=O)N2CCC[C@@H](c3ccnc(N4CCCC4)n3)C2)c[nH]1 | EC50 [2]: 6300 nM
27 | 6.56 | N#Cc1c[nH]c(C(=O)N2CCOC(c3ccnc(N4CCCC4)n3)C2)c1 (racemic) | Activity [10]: inactive; Activity [11]: inactive; Activity [12]: inactive; Activity [13]: inactive; Activity [14]: inactive; Activity [15]: inactive; Activity [16]: inactive; Activity [17]: inactive; Activity [18]: inactive; Activity [19]: inactive; Activity [20]: inactive
28 | 6.56 | N#Cc1cc(C(=O)N2CCC[C@H](c3ccnc(N4CCCC4)n3)C2)c[nH]1 | EC50 [2]: 275 nM
29 | 6.58 | N#Cc1cc(C(=O)N2C[C@@H](c3ccnc(N4CCCC4)n3)CC(F)(F)C2)c[nH]1 | –
30 | 6.60 | C[C@@H]1C[C@H](c2ccnc(N3CCCC3)n2)CN(C(=O)c2c[nH]c(C#N)c2)C1 | CLint scaled [21]: 90 mL/min/kg
31 | 6.75 | N#Cc1cc(C(=O)N2CCC[C@H](c3ccnc(N4CC[C@@H](F)C4)n3)C2)c[nH]1 | –
32 | 6.99 | CO[C@@H]1C[C@H](c2ccnc(N3CCCC3)n2)CN(C(=O)c2c[nH]c(C#N)c2)C1 | –
33 | 7.34 | CO[C@@H]1C[C@H](c2ccnc(N3CC[C@@H](F)C3)n2)CN(C(=O)c2c[nH]c(C#N)c2)C1 | Activity (Mus musculus [3]): Active; pEC50 [4]: < 4.60; Activity (Mus musculus [5]): 500%; pEC50 [6]: 7.20; pEC50 [7]: 7.30; Activity (Mus musculus [8]): 150%; Activity (Mus musculus [9]): 176%
34 | 7.48 | C[C@@H]1CC[C@H](c2ccnc(N3CCCC3)n2)CN1C(=O)c1c[nH]c(C#N)c1 | –
